Values quoted from earlier work in US4944949A, “Pharmaceutical delivery systems” (priority 1986, dated 1990).
Read-outs that look alike come from different tables or passages of the source.

Columns and labels:
[1] = for faecal blood loss with oral prostaglandin E2: oral PGE2 1 mg three or four times daily given with the drug
[2] = for most frequent adverse effects: in vivo
[3] = in vivo
[4] = parts of drug dissolving in 10,000 parts of water

Compound	absorption [3]	solubility in organic solvents	most frequent adverse effects [2]	further results
CC(=O)Oc1ccccc1C(=O)O [Aspirin]	–	–	–	faecal blood loss with oral prostaglandin E2 [1]: reduced to control levels
O=C(O)Cc1ccccc1Nc1c(Cl)cccc1Cl [Diclofenac]	fairly well absorbed	soluble in some organic solvents	–	Gastrointestinal disturbances / side effects reported ([2]; % of cases): about 7%; solubility in water (water): poorly soluble in water
O=C(O)c1ccccc1Nc1cccc(C(F)(F)F)c1 [Flufenamic acid]	well absorbed	reasonably soluble in various organic solvents	gastrointestinal disturbances	bound to plasma proteins (plasma proteins): extensively bound to plasma proteins; solubility in water [4]: less than 1 part in 10,000 parts of water
CC(C(=O)O)c1ccc(-c2ccccc2)c(F)c1 (centres unmarked) [Flurbiprofen]	readily absorbed	readily soluble in most organic solvents	–	bound to plasma proteins (plasma proteins; plasma): approximately 99%
CC(C)Cc1ccc(C(C)C(=O)O)cc1 (centres unmarked) [Ibuprofen, ibuprofen]	well absorbed	fairly soluble in simple organic solvents	gastrointestinal	solubility in water [4]: less than 1 part in 10,000 parts of water; solubility in water (water): poorly soluble in water
COc1ccc2c(c1)c(CC(=O)O)c(C)n2C(=O)c1ccc(Cl)cc1 [Indomethacin]	readily absorbed	more soluble in simple organic solvents	gastrointestinal problems, headache and dizziness	increase in faecal blood loss ([1]; compared with controls): ~3 fold; faecal blood loss with oral prostaglandin E2 [1]: reduced to control levels; parts of water in which drug is soluble (parts of water per part of drug): more than 10,000 parts of water
CC(C(=O)O)c1cccc(C(=O)c2ccccc2)c1 (centres unmarked) [Ketoprofen]	–	–	gastrointestinal	–
COc1ccc2cc([C@H](C)C(=O)O)ccc2c1 [Naproxen]	–	–	gastrointestinal	–
CCCCC1C(=O)N(c2ccccc2)N(c2ccccc2)C1=O [Phenylbutazone]	readily absorbed	–	nausea, vomiting and epigastric distress	–
CN1C(C(=O)Nc2ccccn2)=C(O)c2ccccc2S1(=O)=O [Piroxicam]	well absorbed	soluble in some organic solvents	high incidence of severe gastrointestinal side effects	bound to plasma proteins (plasma proteins; plasma): 99%; solubility in water (water): poorly soluble in water
CC1=C(CC(=O)O)c2cc(F)ccc2/C1=C\c1ccc([S+](C)[O-])cc1 (centres unmarked) [Sulindac]	incompletely absorbed from the gastrointestinal tract	–	gastrointestinal, headache and dizziness	–
